For orientation: inhibition means the drop in the measured response relative to a control, in per cent.

The target in experiment [1] is T1, HER2 kinase (intracellular domain of HER2) (Homo sapiens, UniProt P04626).
T1 construct: FLAG (N); made in house; host or cells: SF-21 insect cells infected with recombinant baculovirus BAC-HER2
Description: Measurement of inhibition activity of HER2 kinase. The settings on record: test compound 1.0 μM, poly-Glu:Tyr(4:1) substrate, [γ-32P]ATP, 25° C. 10 minutes, read-out: Inhibition rate (%) in 1.0 μM. It counts as biochemical. How it is done: Cloning of Human HER2 Gene was performed with RT-PCR templating total RNA prepared from MCF 7 cell. To attach Flag tag in N-terminal of HER2, a primer used in RT-PCR was manufactured by adding flag peptide coding sequence and restricted enzyme recognition sequence to the base sequence (2176-3918 in Genbank Accession M11730) which codes a part of intracellular domain of the protein using an information of base sequence of HER2 Gene (Genbank Accession M11730). Base sequence of the primer was shown as below.
(§1) RT reaction was performed using a SuperScript First-Strand Synthesis system for RT-PCR (Invitrogen), and PCR reaction was performed using a KOD-plus kit (TOYOBO). The obtained PCR product was subjected to electrophoresis on agarose gel (1%), and digested with Sal I and Sph I after collecting a DNA fragment amplified by PCR from the gel. The DNA treated with restricted enzymes was subjected to electrophoresis on agarose gel (1%), the obtained DNA fragment was collected, and ligated to a plasmid pFASTBAC1 (Invitrogen) digested with restricted enzymes Sal I and Sph I, resulting that expression plasmid pFB-HER2 was manufactured. Base sequence of inserted fragment was confirmed. As a result, the base sequence of inserted fragment was corresponded with base sequence of the intracellular domain of the HER2 (pp. 2176-3918 in Genbank Accession M11730). Further, a recombinant baculovirus BAC-HER2 was prepared using BAC-TO-BAC Baculovirus Expression System (Invitrogen).
A SF-21 cell was plated with 1×10^6 cells/ml in a Sf-900II SFM medium (Invitrogen) containing 10% of fetal bovine serum (Trace), 50 mg/L of Gentamicin (Invitrogen) and 0.1% of Pluronic F-68 (Invitrogen), and cultured with shaking at 27° C. at 100 rpm using a 2 L meyer. After culturing for 24 hours, 13.4 ml of a recombinant baculovirus BAC-HER2 was added thereto, and further cultured for 3 days. The cultured solution was centrifuged at 2,000 rpm for 5 minutes, and a virus-infected cell was obtained. The cell was washed with phosphate buffered saline (Invitrogen), centrifuged under the same condition, and preserved at −80° C. The freezing preserved cell was melted on ice, suspended with 30 ml of a buffer A (50 mM of tris-buffer containing 20% of glycerol and 0.15M of NaCl (pH 7.4)) to which was added Complete Protease Inhibitor (Behringer), and crushed at 20,000 rpm for 30 seconds three times using Polytron homogenizer (Kinematica). The crushed solution was clarified by centrifugation at 40,000 rpm for 30 minutes, and filtered using a 45 μm filter. The filtrate was passed through a column filled with Anti-FLAG M2 Affinity Gel (Sigma Corp.) in a flow rate of about 0.5 mL/min. The column was washed with a buffer A, and eluted with a buffer A containing 100 μg/mL of FLAG peptide. The eluted solution was concentrated by Vivaspin 20 of MWCO (molecular weight of cut-off) 30K (Vivascience). This concentrated solution was gel-filtrated and purified by a Hi Load Superdex 200 pg 16/60 (Amersham Biosciences) equilibrated with the buffer A. The fraction containing the intracellular domain of HER2 was collected, and glycerol was added thereto to be a 50% of terminal concentration, and then freezing preserved at −80° C.
The test compound dissolved in dimethylsulfoxide (DMSO) was diluted with buffer for measuring the kinase reaction (50 mM of Tris-HCl (pH 7.5), 5 mM of MgCl2, 5 mM MnCl2, 2 mM of dithiothreitol, 0.01% of Tween-20). […]

Experiment [2] concerns the target T2, EGF receptor kinase (intracellular domain of EGF receptor) (Homo sapiens, UniProt P00533).
T2 construct: FLAG (N); made in house; host or cells: SF-21 insect cells infected with recombinant baculovirus BAC-EGFR
The experiment can be described thus: Measurement of inhibition activity of EGF receptor kinase. Type of experiment: biochemical. The settings on record: EGFR kinase; test compound 1.0 μM; biotinyl-poly-Glu:Tyr (4:1), α-screen assay, 25° C. 10 minutes; read-out: Inhibition rate (%) in 1.0 μM. The procedure:
Cloning of Human EGF Receptor Gene was performed with RT-PCR templating total RNA prepared from A431 cell. To attach Flag tag in N-terminal of EGF, a primer used in RT-PCR was manufactured by adding flag peptide coding sequence and restricted enzyme recognition sequence to the base sequence (2182-3810 in Genbank Accession XM—167493) which codes a part of intracellular domain of the protein using an information of base sequence of EGF receptor Gene (Genbank Accession XM—167493). The Base sequence of the primer was shown as below.
as §1, with “and” for “resulting that”, “EGFR” for “the HER2”, “2182-3810” for “2176-3918”, “XM—167493).” for “M11730).”, “BAC-EGFR” for “BAC-HER2”
A SF-21 cell was plated with 1×10^6 cells/ml in a Sf-900II SFM medium (Invitrogen) containing 10% of a fetal bovine serum (Trace), 50 mg/L of Gentamicin (Invitrogen) and 0.1% of Pluronic F-68 (Invitrogen), and cultured with shaking at 27° C. at 100 rpm using a 2 L meyer. After culturing for 24 hours, 13.4 mL of a recombinant baculovirus EGFR was added thereto, and further cultured for 3 days. The cultured solution was centrifuged in 2,000 rpm for 5 minutes, and a virus-infected cell was obtained. The cell was washed with phosphate buffered saline (Invitrogen), centrifuged under the same condition, and then preserved at −80° C. The freezing preserved cell was melted on ice, suspended with 30 mL of a buffer A (50 mM of tris-buffer containing 20% of glycerol and 0.15M of NaCl (pH 7.4)) to which was added Complete Protease Inhibitor (Behringer), and crushed at 20,000 rpm for 30 seconds three times using Polytron homogenizer (Kinematica). The crushed solution was clarified by centrifugation at 40,000 rpm for 30 minutes, and filtered using a 45 μm filter. The filtrate was passed through a column which is filled with Anti-FLAG M2 Affinity Gel (Sigma Corp.) in a flow rate of about 0.5 mL/min. The column was washed with a buffer A, and eluted with a buffer containing 100 μg/ml of FLAG peptide. […]

T1 sequence (P04626 676-1255 limits assumed): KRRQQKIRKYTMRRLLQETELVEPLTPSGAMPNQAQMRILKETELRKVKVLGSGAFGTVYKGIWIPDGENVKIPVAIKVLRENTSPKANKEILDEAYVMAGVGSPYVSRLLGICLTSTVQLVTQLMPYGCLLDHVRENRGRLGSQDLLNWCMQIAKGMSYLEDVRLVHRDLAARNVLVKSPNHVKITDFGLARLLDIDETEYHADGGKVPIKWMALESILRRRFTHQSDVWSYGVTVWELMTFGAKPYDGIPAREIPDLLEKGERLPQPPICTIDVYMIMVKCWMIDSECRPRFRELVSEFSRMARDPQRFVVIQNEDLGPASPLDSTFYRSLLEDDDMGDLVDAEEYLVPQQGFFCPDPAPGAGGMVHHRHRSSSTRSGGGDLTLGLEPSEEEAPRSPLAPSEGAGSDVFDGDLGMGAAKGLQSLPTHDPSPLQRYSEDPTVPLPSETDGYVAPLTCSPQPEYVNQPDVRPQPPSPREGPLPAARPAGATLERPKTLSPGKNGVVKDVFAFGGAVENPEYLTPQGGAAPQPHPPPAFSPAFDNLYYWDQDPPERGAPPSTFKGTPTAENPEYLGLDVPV
T2 sequence (P00533 669-1210 limits assumed): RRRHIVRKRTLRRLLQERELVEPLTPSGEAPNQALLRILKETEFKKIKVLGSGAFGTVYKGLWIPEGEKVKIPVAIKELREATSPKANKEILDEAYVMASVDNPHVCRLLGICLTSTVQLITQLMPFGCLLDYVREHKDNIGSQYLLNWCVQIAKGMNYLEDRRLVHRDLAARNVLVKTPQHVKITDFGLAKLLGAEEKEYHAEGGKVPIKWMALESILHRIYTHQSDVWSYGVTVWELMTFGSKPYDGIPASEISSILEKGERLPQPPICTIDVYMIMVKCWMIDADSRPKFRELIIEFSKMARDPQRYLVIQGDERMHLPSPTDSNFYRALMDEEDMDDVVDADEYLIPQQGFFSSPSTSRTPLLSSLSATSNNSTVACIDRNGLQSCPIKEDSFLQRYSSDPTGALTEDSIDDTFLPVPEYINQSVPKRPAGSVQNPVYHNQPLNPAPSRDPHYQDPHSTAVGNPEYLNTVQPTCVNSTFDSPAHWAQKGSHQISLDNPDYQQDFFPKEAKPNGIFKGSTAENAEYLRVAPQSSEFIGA

As to `COCCNCCc1ccc(-c2nc3c(Nc4ccc(Oc5ccc(C)nc5)c(C)c4)ncnc3s2)cc1` [Example 41, 2-(4-{2-[(2-methoxyethyl)amino]ethyl}phenyl)-N-{3-methyl-4-[(6-methylpyridin-3-yl)oxy]phenyl}[1,3]thiazolo[5,4-d]pyrimidin-7-amine], the inhibition at 1 µM in experiment [1] turned out to be 89%. Turning to `OCCNCc1ccc(-c2nc3c(Nc4ccc(Oc5cccc(C(F)(F)F)c5)c(Cl)c4)ncnc3s2)cc1` [Example 58, 2-({4-[7-({3-chloro-4-[3-(trifluoromethyl)phenoxy]phenyl}amino)[1,3]thiazolo[5,4-d]pyrimidin-2-yl]benzyl}amino)ethanol], the inhibition at 1 µM in experiment [1] is 90%. For the compound `O=C(CO)NCc1ccc(-c2nc3c(Nc4ccc(OCc5ccsc5)c(Cl)c4)ncnc3s2)cc1` [Example 80, N-[4-(7-{[3-chloro-4-(3-thienylmethoxy)phenyl]amino}[1,3]thiazolo[5,-d]pyrimidin-2-yl)benzyl]-2-hydroxyacetamide], the inhibition at 1 µM in experiment [1] was determined as 87%. Consider `COCCNCc1ccc(-c2nc3c(Nc4ccc(F)c(Cl)c4)ncnc3s2)cc1` [Example 39, N-(3-chloro-4-fluorophenyl)-2-(4-{[(2-methoxyethyl)amino]methyl}phenyl) [1,3]thiazolo[5,4-d]pyrimidin-7-amine], for which the inhibition at 1 µM in experiment [1] was 96%. Consider `CC(=O)NCCCCCc1nc2c(Nc3ccc(OCc4cccc(F)c4)c(Cl)c3)ncnc2s1` [Example 46, N-{5-[7-({3-chloro-4-[(3-fluorobenzyl)oxy]phenyl}amino) [1,3]thiazolo[5,4-d]pyrimidin-2-yl]pentyl}acetamide], for which the inhibition at 1 µM in experiment [2] came to 81%.

`COCCNC(=O)c1nc2c(Nc3ccc(OCc4cccc(F)c4)c(Cl)c3)ncnc2s1` [Example 20, 7-({3-chloro-4-[(3-fluorobenzyl)oxy]phenyl}amino)-N-(2-methoxyethyl) [1,3]thiazolo[5,4-d]pyrimidine-2-carboxamide]: the inhibition at 1 µM in experiment [2] stood at 91%. Turning to `Fc1cccc(COc2ccc(Nc3ncnc4sc(C5CC5)nc34)cc2Cl)c1` [Example 52, N-{3-chloro-4-[(3-fluorobenzyl)oxy]phenyl}-2-cyclopropyl[1,3]thiazolo[5,4-d]pyrimidin-7-amine], the inhibition at 1 µM in experiment [2] was determined as 81%. Still for that read-out and setting: in the case of `CS(=O)(=O)CCNCCNC(=O)c1nc2c(Nc3ccc(OCc4cccc(F)c4)c(Cl)c3)ncnc2s1` [Example 25, 7-({3-chloro-4-[(3-fluorobenzyl)oxy]phenyl}amino)-N-(2-{[2-(methylsulfonyl)ethyl]amino}ethyl)[1,3]thiazolo[5,4-d]pyrimidine-2-carboxamide] it was 88%.

As to `OCCNCc1ccc(-c2nc3c(Nc4ccc(OCc5cccc(F)c5)c(Cl)c4)ncnc3s2)cc1` [Example 26, 2-({4-[7-({3-chloro-4-[(3-fluorobenzyl)oxy]phenyl}amino)[1,3]thiazolo[5,4-d]pyrimidin-2-yl]benzyl}amino)ethanol], the inhibition at 1 µM in experiment [1] worked out at 92%.

The values above are taken from patent US20080269238A1, “Thiazolopyrimidine Derivative” (TAKEDA PHARMACEUTICAL COMPANY LIMITED, priority 2004, published 2008).
